Assay results taken from PubChem BioAssay AID328 (DTP/NCI, 2004).
“And” between values parts separate entries of the source, which are not always exact repeats. Equal entries are not always repeated. Inconclusive results and toxic doses are left out. How the source made its calls: active means survival T/C of 150% or more; inactive means T/C below 125% in these data.

Test system: BDF1 mice, P388 leukemia ip, median survival T/C
Assay: NCI In Vivo Anticancer Drug Screen. Data for tumor model P388 Leukemia (intraperitoneal) in B6D2F1 (BDF1) mice
Settings: endpoint: median survival time, higher = longer survival
Summary of the method: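 Vehicle-dosed animals serve as the reference; survival of compound-dosed, tumour-implanted mice is divided by it.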

[1] = dose: 50.0 mg/kg/injection, schedule: Q01DX009 (ip), vehicle: saline with Tween-80
[2] = dose: 100.0 mg/kg/injection, schedule: Q01DX009 (ip), vehicle: saline with Tween-80
[3] = dose: 100.0 mg/kg/injection, schedule: Q04DX003 (ip), vehicle: saline with Tween-80
[4] = dose: 50.0 mg/kg/injection, schedule: Q01DX009 (ip), vehicle: saline
[5] = dose: 50.0 mg/kg/injection, schedule: Q04DX003 (ip), vehicle: saline
[6] = dose: 25.0 mg/kg/injection, schedule: Q01DX009 (ip), vehicle: saline
[7] = dose: 100.0 mg/kg/injection, schedule: Q04DX003 (ip), vehicle: saline
[8] = dose: 200.0 mg/kg/injection, schedule: Q01DX009 (ip), vehicle: saline
[9] = dose: 200.0 mg/kg/injection, schedule: Q04DX003 (ip), vehicle: saline
[10] = dose: 400.0 mg/kg/injection, schedule: Q01DX009 (ip), vehicle: saline
[11] = dose: 400.0 mg/kg/injection, schedule: Q04DX003 (ip), vehicle: saline

Measured: T/C

CCCCOCCOc1ccc(C(=O)OC)cc1
inactive: dose: 50.0 mg/kg/injection, schedule: Q04DX003 (ip), vehicle: saline sonified 100 % of control | dose: 100.0 mg/kg/injection, schedule: Q04DX003 (ip), vehicle: saline sonified 100 % of control | dose: 200.0 mg/kg/injection, schedule: Q04DX003 (ip), vehicle: saline sonified 105 % of control

CCN1CC2(CO)CCC(OC)C34C5CC6C(OC)CC(O)(C5C6OC)C(O)(C(OC)C23)C14 (stereo not drawn)
inactive: [1] 100 % of control | [2] 103 % of control | dose: 200.0 mg/kg/injection, schedule: Q01DX009 (ip), vehicle: saline with Tween-80 100 % of control

O=S(=O)(ON=C1C=CC(=NOS(=O)(=O)c2ccccc2)C=C1)c1ccccc1
inactive: dose: 3.13 mg/kg/injection, schedule: Q04DX003 (ip), vehicle: Klucel (hydroxypropylcellulose) (HPC) 109 % of control | dose: 6.25 mg/kg/injection, schedule: Q04DX003 (ip), vehicle: Klucel (hydroxypropylcellulose) (HPC) 111 % of control | dose: 12.5 mg/kg/injection, schedule: Q04DX003 (ip), vehicle: Klucel (hydroxypropylcellulose) (HPC) 109 % of control | dose: 25.0 mg/kg/injection, schedule: Q04DX003 (ip), vehicle: Klucel (hydroxypropylcellulose) (HPC) 109 % of control

O=[N+]([O-])c1ccc(NS(=O)(=O)c2cc(Cl)ccc2Cl)c(C(F)(F)F)c1
inactive: [1] 96 % of control | [2] 100 % of control

N#Cc1ccc(NCCO)cc1
inactive: [3] 111 % of control | dose: 200.0 mg/kg/injection, schedule: Q04DX003 (ip), vehicle: saline with Tween-80 100 % of control | dose: 400.0 mg/kg/injection, schedule: Q04DX003 (ip), vehicle: saline with Tween-80 111 % of control

CC[C@@H](O)C[C@H]1CCC[C@@]2(C[C@@H]3OC(=O)/C=C/[C@@](C)(O)[C@@H](O)[C@H](C)[C@@H](O)[C@H](OC4CCC(N(C)C)C(C)O4)[C@@H](O)[C@](C)(O)CCCCC/C=C/[C@@H]4CC(C)(C)O[C@@]4(O)C[C@H](O2)[C@H]3C)O1 (stereo partly drawn)
inactive: dose: 0.04 mg/kg/injection, schedule: Q04DX003 (ip), vehicle: saline 91 % of control | dose: 0.06 mg/kg/injection, schedule: Q04DX003 (ip), vehicle: saline 95 % of control | dose: 0.1 mg/kg/injection, schedule: Q04DX003 (ip), vehicle: saline 108 % of control | dose: 7.5 micrograms/kg/injection, schedule: Q01DX009 (ip), vehicle: saline 100 % of control | dose: 7.5 micrograms/kg/injection, schedule: Q04DX003 (ip), vehicle: saline 104 % of control | dose: 15.0 micrograms/kg/injection, schedule: Q01DX009 (ip), vehicle: saline 109 % of control | dose: 15.0 micrograms/kg/injection, schedule: Q04DX003 (ip), vehicle: saline 104 % of control | dose: 30.0 micrograms/kg/injection, schedule: Q01DX009 (ip), vehicle: saline 104 % of control | dose: 30.0 micrograms/kg/injection, schedule: Q04DX003 (ip), vehicle: saline 113 % of control

CC1(C)N=C(N)N=C(N)N1c1ccc2ccccc2c1
inactive: dose: 12.5 mg/kg/injection, schedule: Q01DX009 (ip), vehicle: saline 120 % of control | [5] 100 % of control
active: [4] 160 % of control

NC(C(=O)O)c1cccc(Cl)c1 (stereo not drawn)
inactive: dose: 100.0 mg/kg/injection, schedule: Q01DX001 (ip), vehicle: Klucel (hydroxypropylcellulose) (HPC) 91 % of control | dose: 200.0 mg/kg/injection, schedule: Q01DX001 (ip), vehicle: Klucel (hydroxypropylcellulose) (HPC) 108 % of control | dose: 400.0 mg/kg/injection, schedule: Q01DX001 (ip), vehicle: Klucel (hydroxypropylcellulose) (HPC) 95 % of control

c1ccc(C2=NC(CCN3CCCCC3)(c3ccccc3)SC2CN2CCCCC2)cc1 (stereo not drawn)
inactive: dose: 50.0 mg/kg/injection, schedule: Q01DX005 (ip), vehicle: Klucel (hydroxypropylcellulose) (HPC) 101 % of control | dose: 100.0 mg/kg/injection, schedule: Q01DX005 (ip), vehicle: Klucel (hydroxypropylcellulose) (HPC) 105 % of control | dose: 200.0 mg/kg/injection, schedule: Q01DX005 (ip), vehicle: Klucel (hydroxypropylcellulose) (HPC) 104 % of control

O=C1OC(=O)C2C3C=CC(C4C=CC43)C12 (stereo not drawn)
inactive: dose: 12.5 mg/kg/injection, schedule: Q04DX003 (ip), vehicle: saline 101 % of control | [6] 97 % of control | dose: 25.0 mg/kg/injection, schedule: Q04DX003 (ip), vehicle: saline 104 % of control | [4] 97 % of control | [5] 111 % of control and 124 % of control | [7] 92 % of control and 106 % of control | [8] 86 % of control | [9] 111 % of control and 119 % of control | [10] 100 % of control | [11] 109 % of control

CNC(=O)Oc1coc(CCl)cc1=O
inactive: dose: 12.0 mg/kg/injection, schedule: Q01DX009 (ip), vehicle: Klucel (hydroxypropylcellulose) (HPC) 95 % of control | dose: 16.5 mg/kg/injection, schedule: Q01DX009 (ip), vehicle: saline 108 % of control | dose: 18.0 mg/kg/injection, schedule: Q01DX009 (ip), vehicle: Klucel (hydroxypropylcellulose) (HPC) 86 % of control | [6] 120 % of control | dose: 27.0 mg/kg/injection, schedule: Q01DX009 (ip), vehicle: Klucel (hydroxypropylcellulose) (HPC) 100 % of control | dose: 37.5 mg/kg/injection, schedule: Q01DX009 (ip), vehicle: saline 116 % of control | dose: 40.0 mg/kg/injection, schedule: Q01DX009 (ip), vehicle: Klucel (hydroxypropylcellulose) (HPC) 118 % of control | dose: 60.0 mg/kg/injection, schedule: Q01DX009 (ip), vehicle: Klucel (hydroxypropylcellulose) (HPC) 118 % of control

COC(=O)[C@@H]1[C@@H](O)[C@H](OC(=O)c2cc(OC)c(OC)c(OC)c2)C[C@@H]2CN3CCc4c([nH]c5ccccc45)[C@H]3C[C@@H]21
inactive: dose: 1.56 mg/kg/injection, schedule: Q01DX009 (ip), vehicle: saline with Tween-80 90 % of control | dose: 2.0 mg/kg/injection, schedule: Q01DX009 (ip), vehicle: Klucel (hydroxypropylcellulose) (HPC) 100 % of control | dose: 3.13 mg/kg/injection, schedule: Q01DX009 (ip), vehicle: saline with Tween-80 90 % of control | dose: 4.0 mg/kg/injection, schedule: Q01DX009 (ip), vehicle: Klucel (hydroxypropylcellulose) (HPC) 100 % of control | dose: 6.25 mg/kg/injection, schedule: Q01DX009 (ip), vehicle: saline with Tween-80 86 % of control | dose: 8.0 mg/kg/injection, schedule: Q01DX009 (ip), vehicle: Klucel (hydroxypropylcellulose) (HPC) 100 % of control | dose: 16.0 mg/kg/injection, schedule: Q01DX009 (ip), vehicle: Klucel (hydroxypropylcellulose) (HPC) 100 % of control

O=C(O)c1occ(Cl)c1Cl
inactive: dose: 0.78 mg/kg/injection, schedule: Q01DX009 (ip), vehicle: water 100 % of control | dose: 1.56 mg/kg/injection, schedule: Q01DX009 (ip), vehicle: water 98 % of control | dose: 3.12 mg/kg/injection, schedule: Q01DX009 (ip), vehicle: water 97 % of control | dose: 6.25 mg/kg/injection, schedule: Q01DX009 (ip), vehicle: water 97 % of control | dose: 12.5 mg/kg/injection, schedule: Q01DX009 (ip), vehicle: water 94 % of control | dose: 25.0 mg/kg/injection, schedule: Q01DX009 (ip), vehicle: water 94 % of control | dose: 50.0 mg/kg/injection, schedule: Q01DX009 (ip), vehicle: water 106 % of control | dose: 50.0 mg/kg/injection, schedule: Q04DX003 (ip), vehicle: water 96 % of control | dose: 100.0 mg/kg/injection, schedule: Q04DX003 (ip), vehicle: water 104 % of control | dose: 200.0 mg/kg/injection, schedule: Q04DX003 (ip), vehicle: water 119 % of control

O=C(O)CCCC1CCC(=O)CC1
inactive: [4] 90 % of control | dose: 100.0 mg/kg/injection, schedule: Q01DX001 (ip), vehicle: other 95 % of control | dose: 100.0 mg/kg/injection, schedule: Q01DX009 (ip), vehicle: saline 90 % of control | [7] 104 % of control | dose: 200.0 mg/kg/injection, schedule: Q01DX001 (ip), vehicle: other 104 % of control | [8] 110 % of control | [9] 104 % of control | dose: 400.0 mg/kg/injection, schedule: Q01DX001 (ip), vehicle: other 120 % of control | [10] 110 % of control | [11] 109 % of control

CCOC(=O)c1cc2ccccc2oc1=O
inactive: dose: 25.0 mg/kg/injection, schedule: Q01DX009 (ip), vehicle: saline with Tween-80 95 % of control | dose: 25.0 mg/kg/injection, schedule: Q04DX003 (ip), vehicle: saline with Tween-80 115 % of control | [1] 100 % of control | dose: 50.0 mg/kg/injection, schedule: Q04DX003 (ip), vehicle: saline with Tween-80 105 % of control | [3] 105 % of control
